Values after ≈ are worked out from the molar mass of the structure shown.

For this data set the following is noted: buffer; pH 7.4; 200.0 µM.
Molecule `O=C(CSc1ncccn1)NCc1ccc2c(c1)OCO2` yielded a kinetic solubility of more than 45.5 µg/mL.
The molecule `COc1cc(/C=C2\SC(N)=NC2=O)cc(OC)c1` registered a kinetic solubility of 3.8 µg/mL (≈ 14.4 µM).
The molecule `O=C(Nc1cccc(-c2nc3ccccc3[nH]2)c1)c1ccccn1` displayed a solubility (kinetic) of 6.2 µg/mL (≈ 19.7 µM).
The same measure for `Cc1cc(=O)n(CC(=O)O)c2ccccc12`: more than 32.6 µg/mL; for `Cc1[nH]c2ccccc2c1-c1nc(N)sc1C`: more than 36.5 µg/mL.
The same measure for `O=C(Oc1cccc(C(=S)N2CCCCC2)c1)c1ccccc1`: 6 µg/mL (≈ 18.4 µM).
As for `Cc1cccc(Nc2nc(N)nc(-c3oc4ccccc4c3C)n2)c1`, the figure is less than 0.1 µg/mL; as for `COCCCN(CC(=O)O)S(=O)(=O)c1ccccc1`, more than 43.1 µg/mL.
As for `COc1cccc(NC(=O)COC(=O)c2sccc2C)c1`, the kinetic solubility came to 12.2 µg/mL (≈ 40 µM).
The same measure for `O=C1NC(=O)C(c2ccccc2)(c2ccc(O)cc2)N1` (centres undefined): more than 40.2 µg/mL.
As for `COC(=O)c1cc(C(=O)NC(C)C2CC3CCC2C3)cc([N+](=O)[O-])c1` (centres undefined), the figure is 11 µg/mL (≈ 31.8 µM); as for `Cc1cc(C(=O)Nc2cc(Br)ccc2O)on1`, 7.6 µg/mL (≈ 25.6 µM).
`CN1CCN(NC(=S)NC(C)(C)CC(C)(C)C)CC1` had a solubility (kinetic) of more than 43 µg/mL.
Turning to `O=C(c1cccc(O)c1)N1CCN(C(=O)C2CC2)CC1`, the kinetic solubility is more than 41.1 µg/mL.
For `COC(=O)C1=C(NC(=O)c2ccccc2C)CCS1`, the kinetic solubility turned out to be 10 µg/mL (≈ 36.1 µM).
The same measure for `O=c1c2ccccc2nc(/C=C/c2ccccn2)n1-c1ccccc1`: 0.6 µg/mL (≈ 1.84 µM); for `Cc1cc(NC(=O)COc2ccc(C(C)(C)C)cc2)no1`: 2 µg/mL (≈ 6.94 µM); for `CC12CCC(C1)C(C)(C)C2NS(=O)(=O)c1ccc(F)cc1` (centres undefined): 6.9 µg/mL (≈ 22.2 µM).
As for `CCc1ccc2[nH]c(C(=O)Nc3ccc4c(c3)OCO4)cc2c1`, the figure is 0.8 µg/mL (≈ 2.59 µM); as for `C=CCN1C(=O)C(C)(C)N(C(=O)c2cccc([N+](=O)[O-])c2)c2ccccc21`, 23.5 µg/mL (≈ 64.3 µM); as for `CC(C#N)Sc1nnc(-c2ccccc2F)n1C1CC1` (centres undefined), more than 43.3 µg/mL.
As for `COc1ccc(S(=O)(=O)NC2CCCC2)c(OC)c1`, the figure is more than 42.8 µg/mL; as for `CN=C(Nc1cccc(S(=O)(=O)N2CCOCC2)c1)c1ccccc1`, 17.2 µg/mL (≈ 47.9 µM); as for `COc1cc2ncnc(Nc3ccc4c(c3)OCO4)c2cc1OC`, 10.1 µg/mL (≈ 31 µM).
For the molecule `O=C(NCC(c1cccs1)N1CCOCC1)c1cccnc1` (centres undefined), the kinetic solubility is 43.6 µg/mL (≈ 137 µM).
The same measure for `O=C(Nc1nccs1)c1ccc(N2C(=O)[C@@H]3[C@H](C2=O)[C@H]2C=C[C@@H]3C2)cc1`: 6.1 µg/mL (≈ 16.7 µM); for `COc1ccc(-c2noc(CN(C)Cc3ccccc3)n2)cc1`: 5.7 µg/mL (≈ 18.4 µM); for `O=C(NC1CCCCC1)c1cc2cc(Br)ccc2o1`: less than 0.7 µg/mL.
The same measure for `Cc1ccc(NC(=O)CNC(C)c2ccccc2)cc1.Cl` (centres undefined): more than 45.7 µg/mL; for `CCOC(=O)C1CCCN(CC(=O)c2c[nH]c3ccc(C)cc23)C1` (centres undefined): 46.5 µg/mL (≈ 142 µM).
Molecule `CC(NC(=O)/C=C/c1ccccc1[N+](=O)[O-])C1CC2CCC1C2` (centres undefined) yielded a solubility (kinetic) of 1.2 µg/mL (≈ 3.82 µM).
Molecule `COc1cccc(C2(C#N)CCN(C)CC2)c1` displayed a solubility (kinetic) of more than 34.5 µg/mL.
As for `COc1ccc(NS(=O)(=O)c2cccc(C(=O)NCC(c3cccs3)N3CCOCC3)c2)cc1` (centres undefined), the figure is 71.3 µg/mL (≈ 142 µM); as for `COc1ccc(C(=O)Nc2ccc3ccccc3n2)cc1OC`, 0.7 µg/mL (≈ 2.27 µM).
As for `CCCC(C(=O)Nc1ccncc1)c1ccccc1` (centres undefined), the figure is more than 38.1 µg/mL; as for `N#CCOC(=O)[C@H](Cc1ccccc1)N1C(=O)c2ccccc2C1=O`, 47.3 µg/mL (≈ 141 µM).
As for `CN1CCN(C(=O)C2CC(=O)N(c3ccc(Cl)cc3)C2)CC1` (centres undefined), the figure is 42.7 µg/mL (≈ 133 µM); as for `COc1ccc(C(=O)OCC(=O)Nc2sccc2C(N)=O)cc1OC`, 1 µg/mL (≈ 2.74 µM); as for `Cc1cc(=O)oc2cc(NC(=O)c3cc(F)ccc3F)ccc12`, 2.1 µg/mL (≈ 6.66 µM).
The molecule `O=C(COC(=O)c1ccccc1)NC12CC3CC(CC(C3)C1)C2` had a kinetic solubility of 9.2 µg/mL (≈ 29.4 µM).
Molecule `Cc1ccc(NC(=O)c2ccco2)c(NC(=O)COc2ccccc2)c1` registered a solubility (kinetic) of 5.3 µg/mL (≈ 15.1 µM).
`Cc1ccc(OCCNCc2ccccc2)c(C)c1.O=C(O)C(=O)O`: the kinetic solubility turned out to be 45.8 µg/mL.
The same measure for `Cc1ccc(CN2CCN(c3ccccc3)CC2)o1.O=C(O)C(=O)O`: 49.1 µg/mL.
For `CC(C(=O)Nc1ccc(Cl)cc1)N1C(=O)NC2(CCCC2)C1=O` (centres undefined), the solubility (kinetic) worked out at 25.8 µg/mL (≈ 76.8 µM).
The same measure for `Cc1cc(Cl)nc(-c2ccccc2O)n1`: less than 0.2 µg/mL; for `N#C/C(=C\c1ccco1)C(=O)Nc1ccc(S(N)(=O)=O)cc1`: 3.5 µg/mL (≈ 11 µM).
The same measure for `Cc1cc(Oc2ccc(N)cn2)ccc1Cl`: 30.8 µg/mL (≈ 131 µM).
The same measure for `Cc1cccnc1NC(=O)CCNC(=O)c1ccc(Cl)cc1`: more than 47.7 µg/mL; for `Nc1c(C(=O)c2ccco2)oc2ccccc12`: 25.8 µg/mL (≈ 114 µM); for `Cc1ccc(N(CC(=O)N2CCCC2)S(C)(=O)=O)c(C)c1`: more than 46.6 µg/mL.
The molecule `CC(C)C(NC(=O)c1ccccc1NC(=O)C(C)(C)C)C(=O)N1CCOCC1` (centres undefined) had a solubility (kinetic) of 37 µg/mL (≈ 95 µM).
The same measure for `CN(CCC#N)C(=O)COc1ccc(Br)cc1Cl`: more than 49.7 µg/mL; for `NC(=O)c1ccc(NC(=O)COC(=O)CCSc2ccccc2)cc1`: 15.1 µg/mL (≈ 42.1 µM); for `O=C(Cc1cccs1)NC1CCCC1`: more than 31.4 µg/mL.
The same measure for `CC(=O)N1CCCC1(C(=O)O)c1ccccc1` (centres undefined): 33.8 µg/mL (≈ 145 µM).
Regarding `COCCCNc1nc2ccccc2[nH]c1=O`, the solubility (kinetic) was more than 35 µg/mL.
As for `O=C(Cn1cnc2ccccc21)c1ccc(Cl)cc1`, the figure is 28.9 µg/mL (≈ 107 µM).
For the molecule `O=C(COc1ccc2c(c1)OCO2)Nc1cccc(F)c1`, the solubility (kinetic) is 21.5 µg/mL (≈ 74.3 µM).
The same measure for `O=C(O)Cc1sc(NC2CCCCC2)nc1-c1ccc(Cl)cc1`: more than 52.6 µg/mL; for `O=C(O)c1cccc(Nc2c3ccccc3nc3ccccc23)c1`: 2.4 µg/mL (≈ 7.63 µM); for `COc1cccc(CNC(=O)Cc2ccc(-c3ccccc3)cc2)c1`: 5.1 µg/mL (≈ 15.4 µM).
As for `CSc1ccc(CNCCN2CCOCC2)cc1.Cl`, the figure is more than 50.9 µg/mL.
The same measure for `CCN(C(=O)COC(=O)c1ccc(O)cc1)c1cccc2ccccc12`: 24.6 µg/mL (≈ 70.4 µM); for `COc1ccc(CNc2nc3ccccc3n2C)c(O)c1`: 10.7 µg/mL (≈ 37.8 µM).
In turn, `COc1cc2ccccc2cc1C(=O)N1CCc2ccccc21` came in with a solubility (kinetic) of 1.9 µg/mL (≈ 6.26 µM).
As for `Cc1cc(NC(=O)c2ccccc2)no1`, the figure is 28.8 µg/mL (≈ 142 µM); as for `O=C(Nc1ccc(N2CCOCC2)cc1N1CCOCC1)c1ccc(F)cc1`, 42.2 µg/mL (≈ 109 µM).
As for `O=C(O)C1C2CCC(C2)C1C(=O)Nc1ccc(Cl)c(Cl)c1` (centres undefined), the figure is less than 0.7 µg/mL; as for `CCC(=O)N1CCc2cc(S(=O)(=O)Nc3ccccc3C)ccc21`, less than 0.4 µg/mL; as for `CSc1ccc(CN(C)C(=O)c2cc3ccccc3o2)cc1`, 10.3 µg/mL (≈ 33.1 µM).
The same measure for `COc1ccc(CC(=O)OCC(=O)NCc2ccc(F)cc2)cc1`: more than 49.7 µg/mL; for `CCOC(=O)c1cn(C2CC2)c2c(F)c(F)c(F)cc2c1=O`: 42.7 µg/mL (≈ 137 µM).
`COc1ccc(C(C)=O)cc1CN1C(=O)NC(CC(C)C)C1=O` (centres undefined) registered a kinetic solubility of more than 47.8 µg/mL.
The same measure for `COc1ccc(S(=O)(=O)NCc2ccccn2)cc1OC`: 43 µg/mL (≈ 139 µM).
`COc1ccccc1OCCC(=O)OCC(=O)Nc1ccc2c(c1)OCO2` displayed a solubility (kinetic) of 16.3 µg/mL (≈ 43.7 µM).
As for `Cc1cccc(C(=O)Nc2ccc(O)cc2C(=O)O)c1`, the figure is more than 40.7 µg/mL; as for `COCCN1CC(C(=O)NCc2ncccc2C)CCC1=O` (centres undefined), more than 45.8 µg/mL; as for `O=C(c1cc2c(s1)-c1ccccc1S(=O)(=O)C2)N1CCCC1`, 47.6 µg/mL (≈ 143 µM).
As to `O=C1CN(C(=O)CSc2nncs2)c2ccccc2N1`, the solubility (kinetic) was more than 46 µg/mL.
As for `O/N=C/c1cc(Br)cs1`, the figure is 16.9 µg/mL (≈ 82 µM); as for `CN(C)CCOC1c2ccccc2-c2ccccc21.O=C(O)C(=O)O`, more than 51.5 µg/mL; as for `NC(=S)/N=C/c1c(O)[nH]c(=O)[nH]c1=O`, 15.6 µg/mL (≈ 72.8 µM).
As for `O=C(CNC(c1ccccc1)c1ccccc1)Nc1ccccc1F`, the figure is less than 0.4 µg/mL.
Take `Cc1cccc(NC(=O)COC(=O)C2COc3ccccc3O2)c1C` (centres undefined): the solubility (kinetic) was more than 51.2 µg/mL.
For `O=C(COc1ccc(F)cc1)NCCNC(=O)COc1ccc(F)cc1`, the kinetic solubility stood at 11.2 µg/mL (≈ 30.7 µM).
As for `CC1(C)CC(=O)C(C=Nc2ccc(N)cc2)=C(O)C1`, the figure is more than 38.7 µg/mL; as for `OCCCNc1nc(-c2ccccc2)nc2c1oc1ccccc12`, 1.3 µg/mL (≈ 4.07 µM); as for `Cc1cc(C(=O)OCC(=O)NCc2cccs2)ccc1[N+](=O)[O-]`, 4.8 µg/mL (≈ 14.4 µM).
`Cn1cnnc1SCC(=O)Nc1ncc([N+](=O)[O-])s1` came in with a solubility (kinetic) of more than 45 µg/mL.
As for `Cc1ccc(OCC(O)CN2CCc3ccccc3C2)c(C)c1.Cl` (centres undefined), the figure is 30.7 µg/mL; as for `Cc1ccc(Nc2nc(C)c3c(n2)CC(C)CC3=O)c(C)c1` (centres undefined), 1.7 µg/mL (≈ 5.76 µM); as for `O=C(O)COCC(=O)Nc1cc(C(F)(F)F)cc(C(F)(F)F)c1`, more than 51.8 µg/mL.
The same measure for `CC(C)(CN1CCCC1)NS(=O)(=O)c1ccc(Cl)cc1`: more than 47.5 µg/mL.
As for `CC(=O)N1c2ccccc2C(C)=CC1(C)C`, the figure is 8.1 µg/mL (≈ 37.6 µM); as for `CCCS(=O)(=O)Nc1ccc(-c2cn3c(n2)SCC3)cc1`, 44.5 µg/mL (≈ 138 µM); as for `CSC(=NCc1ccco1)NC#N`, 27.8 µg/mL (≈ 142 µM).
In turn, `CC1CN(C(=O)c2ccc([N+](=O)[O-])s2)CC(C)O1` (centres undefined) displayed a solubility (kinetic) of more than 40.5 µg/mL.
The same measure for `CCOc1ccc(C(=O)CCC(=O)N2CCN(c3ccccc3O)CC2)cc1`: 2.2 µg/mL (≈ 5.75 µM).
As for `Cc1cc(C)cc(NC(=O)N2CCC(NC(=O)c3ccco3)CC2)c1`, the figure is 44.4 µg/mL (≈ 130 µM).
The same measure for `CC(=O)Nc1ccc(NC(=O)COC(=O)c2ccccn2)cc1`: more than 47 µg/mL.
As to `COc1ccc(-c2ccc(CCC(=O)O)n2NC(=O)c2ccc(O)cc2)cc1`, the solubility (kinetic) is more than 57.1 µg/mL.
As for `COc1ccc(Cl)cc1NC(=O)c1noc(C)c1[N+](=O)[O-]`, the figure is 9 µg/mL (≈ 28.9 µM).
The same measure for `CCOc1ccccc1NC(=S)NCc1cccn1C`: 38.5 µg/mL (≈ 133 µM).
As for `CC(OC(=O)c1cnccn1)C(=O)c1ccccc1` (centres undefined), the figure is more than 38.4 µg/mL.

(Values after PubChem BioAssay AID1996.)
